Consider 17 molecules from patent US20230181482A1, “LIPIDS FOR DELIVERY OF NUCLEIC ACID SEGMENTS” (AstraZeneca AB, priority 2021, published 2023).

The nature of series [1]: mRNA encapsulation efficiency of LNP formulations (Quant-it Ribogreen assay with Triton-X100). Particulars: N/P ratio 3:1, DMPE-PEG2000. It counts as physicochemical. The method, then: (§1) A solution of eGFP mRNA (purchased from TriLink Biotechnologies) in citrate buffer was prepared by mixing mRNA dissolved in MilliQ-water, 100 mM citrate buffer (pH 3) and MilliQ-water to give a solution of 50 mM citrate. Lipid solution in ethanol (99.5%) was prepared with four different lipid components: ionizable lipid (see Table 1); cholesterol (Sigma-Aldrich); DSPC (distearoyl phosphatidyl choline, Avanti Polar Lipids Inc); and a polymer-conjugated lipid (see Table 1). The ratio of lipids in all experiments was ionizable lipid/cholesterol/DSPC/polymer-conjugated lipid (50/38.5/10/1.5 mol %). The total concentration of lipids in all experiments was 12.5 mM.
(§2) The mRNA and lipid solutions were mixed in a NanoAssemblr (Precision Nanosystems, Vancouver, BC, Canada) microfluidic mixing system at a mixing ratio of Aq:EtOH=3:1 and a constant flow rate of 12 mL/min. The mRNA in citrate buffer solution was prepared such that, at the time of mixing the ratio between the nitrogen atoms on the ionizable lipid and phosphorus atoms (N/P ratio) on the mRNA chain was either 3:1 or 6:1 (see Table 1).
The final mRNA concentration and encapsulation efficiency percentage (% EE) was measured by Quant-it Ribogreen Assay Kit (ThermoFischer Scientific Inc.) using Triton-X100 to disrupt the LNPs. The mRNA encapsulation efficiency was determined according to the following equation: […]

In a further series the test system is Female BALB/c mice. Put plainly: eGFP expression in the liver at 24 hours after intravenous administration of LNP formulations to mouse (ELISA). It is filed as in vivo. Particulars: LNP N/P 3:1, DMPE-PEG2000. From the text:
Female BALB/c mice were purchased (SPF (Beijing) Laboratory Animal Technology Co. Ltd.) and on arrival were caged in groups of 4 on corncob bedding, with normal diet and were provided tap drinking water ad libitum that was purified and autoclaved before being offered to the animal. The environment was maintained at a target temperature of […] and relative humidity of 40-80%, with a 12-hour light/dark cycle. Animals were acclimatised to the housing conditions for at least 7 days prior to any experimental procedures and were approximately 6-8 weeks of age at the start of dosing
Animals were assigned to respective groups such that the mean body weights for each treatment groups will be equal. N=4 for each treatment group.
Formulations 1, 3, 4, 5, and 6 from Example 58 were each dosed intravenously: Each mouse was removed from its cage and restrained, and then dosed with a slow IV bolus of a formulation in the lateral tail vein at a dose […] of 0.3 mg/kg.
All animals were sacrificed 24 hours after dosing and flowing blood sampling the liver for the animals dosed by the IV route and the liver and muscle at the dose site for the IM dosed animals were harvested for eGFP analysis by ELISA.
Additional LNP formulations were prepared according to the procedures described in Example 46. These formulations were tested using the same protocol as described herein. The results of eGFP expression in the liver at 24 hours after intravenous administration of the formulations were summarized in Tables 3, 4, 5 and 6 below.

Series [2] in a line: LNP particle size by dynamic light scattering (Zetasizer Nano ZS). Particulars: N/P ratio 3:1, DMPE-PEG2000. It is filed as physicochemical. The method, then: as §1, §2
The first 0.2-0.35 mL and the last 0.05-0.1 mL of the LNP suspension prepared were discarded while the rest of the volume was collected as the sample fraction. The size of the mRNA lipid nanoparticles was determined by dynamic light scattering measurements using a Zetasizer Nano ZS from Malvern Instruments Ltd, giving directly the z-average particle diameter. The number-weighted particle size distributions and averages were calculated using a particle refractive index of 1.45.

Molecules are shown by their SMILES.

In the case of `CCCCCCCCC(CCCCCCCC)OC(=O)CCCCCCCC(CCCCCCCC(=O)OCC(C)CCCCCCC)NCC1CCOC1` (centres unmarked) [Compound 21, 1-(heptadecan-9-yl) 17-(2-methylnonyl) 9-(((tetrahydrofuran-3-yl)methyl)amino)heptadecanedioate], in series [1] (Table 5), the “% EE” value was 97%. Moreover, in the series on Female BALB/c mice (Table 5, 0.3 mg/kg), the “Liver eGFP protein (ng/g tissue)” value was 4103.6 ng/g tissue. Moreover, in series [2] (Table 5), the “<d>N (nm)” value is on record as 57 nm and the “<d>Z (nm)” value turned out to be 72 nm.
The corresponding values for `CCCCCCCCC(CCCCCCCC)OC(=O)CCCCCCCC(CCCCCCCC(=O)OCC(C)CCCCCCC)NC1CC2(COC2)C1` (centres unmarked) [Compound 22, 1-(heptadecan-9-yl) 17-(2-methylnonyl) 9-((2-oxaspiro[3.3]heptan-6-yl)amino)heptadecanedioate] are 95%, 4570.6 ng/g tissue, 63 nm and 90 nm.
As for `CCCCCCCCC(CCCCCCCC)OC(=O)CCCCCCC(CCCCCCC(=O)OC(CCCCCCCC)CCCCCCCC)NC1CC2(COC2)C1` [Compound 23, di(heptadecan-9-yl) 8-((2-oxaspiro[3.3]heptan-6-yl)amino)pentadecanedioate], the “% EE” value in series [1] (Table 4) is 96%. In addition, the “Liver eGFP protein (ng/g tissue)” value in the series with Female BALB/c mice (Table 4, 0.3 mg/kg) was 2318.8 ng/g tissue. Besides, in series [2] (Table 4), the “<d>N (nm)” value came to 45 nm and the “<d>Z (nm)” value stood at 62 nm.
In the same order, the values of `CCCCCCCCCOC(=O)CCCCCCC(CCCCCCC(=O)OC(CCCCCCCC)CCCCCCCC)NC1CC2(COC2)C1` (centres unmarked) [Compound 24, 1-(heptadecan-9-yl) 15-nonyl 8-((2-oxaspiro[3.3]heptan-6-yl)amino)pentadecanedioate] are 94%, 748.9 ng/g tissue, 52 nm and 71 nm.
In the same order, the values of `CCCCCCCCC(C)OC(=O)CCCCCCC(CCCCCCC(=O)OC(CCCCCCCC)CCCCCCCC)NC1CC2(COC2)C1` (centres unmarked) [Compound 25, 1-(decan-2-yl) 15-(heptadecan-9-yl) 8-((2-oxaspiro[3.3]heptan-6-yl)amino)pentadecanedioate] are 94%, 15961.7 ng/g tissue, 50 nm and 69 nm.
Consider `CCCCCCCCC(CCCCCCCC)OC(=O)CCCCCCC(CCCCCCC(=O)OCCCCCCCC(C)C)NC1CC2(COC2)C1` (centres unmarked) [Compound 26, 1-(heptadecan-9-yl) 15-(8-methylnonyl) 8-((2-oxaspiro[3.3]heptan-6-yl)amino)pentadecanedioate], for which the “% EE” value in series [1] (Table 4) amounted to 94%. Moreover, the “Liver eGFP protein (ng/g tissue)” value in the series on Female BALB/c mice (Table 4, 0.3 mg/kg) was 824.8 ng/g tissue. Further, in series [2] (Table 4), the “<d>N (nm)” value was 50 nm and the “<d>Z (nm)” value is 75 nm.
For the molecule `CCCCCCCCC(CCCCCCCC)OC(=O)CCCCCCC(CCCCCCC(=O)OCCC(CCCCCCC)CCCCCCC)NC1CC2(COC2)C1` (centres unmarked) [Compound 27, 1-(heptadecan-9-yl) 15-(3-heptyldecyl) 8-((2-oxaspiro[3.3]heptan-6-yl)amino)pentadecanedioate], the “% EE” value in series [1] (Table 4) is given as 97%. In addition, the “Liver eGFP protein (ng/g tissue)” value in the series on Female BALB/c mice (Table 4, 0.3 mg/kg) is 4982.6 ng/g tissue. In series [2] (Table 4), the “<d>N (nm)” value is reported as 55 nm and the “<d>Z (nm)” value worked out at 98 nm.
The corresponding values for `CCCCCCCC(CCCCCCC)COC(=O)CCCCCCC(CCCCCCC(=O)OCC(CCCCCCC)CCCCCCC)NC1CC2(COC2)C1` [Compound 28, Bis(2-heptylnonyl) 8-((2-oxaspiro[3.3]heptan-6-yl)amino)pentadecanedioate] are 97%, 9557.1 ng/g tissue, 80 nm and 129 nm.
As for `CCCCCCCCC(C)OC(=O)CCCCCCC(CCCCCCC(=O)OCC(CCCCCCC)CCCCCCC)NC1CC2(COC2)C1` (centres unmarked) [Compound 29, 1-(decan-2-yl) 15-(2-heptylnonyl) 8-((2-oxaspiro[3.3]heptan-6-yl)amino)pentadecanedioate], the “% EE” value in series [1] (Table 4) is 90%. The “Liver eGFP protein (ng/g tissue)” value in the series on Female BALB/c mice (Table 4, 0.3 mg/kg) was found to be 1288.4 ng/g tissue. Also, in series [2] (Table 4), the “<d>N (nm)” value is 51 nm and the “<d>Z (nm)” value is 71 nm.
The corresponding values for `CCCCCCCCC(CCCCCCCC)OC(=O)CCCCCCCC(CCCCCCCC(=O)OC(CCCCCCCC)CCCCCCCC)NC1CC2(COC2)C1` [Compound 31, Di(heptadecan-9-yl) 9-((2-oxaspiro[3.3]heptan-6-yl)amino)heptadecanedioate] are 94%, 1319.3 ng/g tissue, 47 nm and 62 nm.
As to `CCCCCCCCC(C)OC(=O)CCCCCCCC(CCCCCCCC(=O)OC(CCCCCCCC)CCCCCCCC)NC1CC2(COC2)C1` (centres unmarked) [Compound 32, 1-(decan-2-yl) 17-(heptadecan-9-yl) 9-((2-oxaspiro[3.3]heptan-6-yl)amino)heptadecanedioate], the “% EE” value in series [1] (Table 4) came to 94%. For the same molecule, in the series on Female BALB/c mice (Table 4, 0.3 mg/kg), the “Liver eGFP protein (ng/g tissue)” value turned out to be 16518.2 ng/g tissue. In series [2] (Table 4), the “<d>N (nm)” value is recorded as 56 nm and the “<d>Z (nm)” value was 72 nm.
The corresponding values for `CCCCCCCCC(CCCCCCCC)OC(=O)CCCCCCCC(CCCCCCCC(=O)OCC(CCCCCCC)CCCCCCC)NC1CC2(COC2)C1` (centres unmarked) [Compound 33, 1-(heptadecan-9-yl) 17-(2-heptylnonyl) 9-((2-oxaspiro[3.3]heptan-6-yl)amino)heptadecanedioate] are 97%, 1056.2 ng/g tissue, 53 nm and 67 nm.
In the same order, the values of `CCCCCCC(CCCCCC)COC(=O)CCCCCCCC(CCCCCCCC(=O)OCC(CCCCCC)CCCCCC)NC1CC2(COC2)C1` [Compound 34, Bis(2-hexyloctyl) 9-((2-oxaspiro[3.3]heptan-6-yl)amino)heptadecanedioate] are 96%, 11015.4 ng/g tissue, 51 nm and 68 nm.
With `CCCCCCCCC(C)OC(=O)CCCCCCCC(CCCCCCCC(=O)OC(CCCCCCCC)CCCCCCCC)NCC1CCOCC1` (centres unmarked) [Compound 35, 1-(decan-2-yl) 17-(heptadecan-9-yl) 9-(((tetrahydro-2H-pyran-4-yl)methyl)amino)heptadecanedioate], the “% EE” value in series [1] (Table 5) turned out to be 95%. Moreover, in the series with Female BALB/c mice (Table 5, 0.3 mg/kg), the “Liver eGFP protein (ng/g tissue)” value was 5974.6 ng/g tissue. Moreover, in series [2] (Table 5), the “<d>N (nm)” value amounted to 59 nm and the “<d>Z (nm)” value worked out at 77 nm.
The corresponding values for `CCCCCCCCC(C)OC(=O)CCCCCCCC(CCCCCCCC(=O)OC(CCCCCCCC)CCCCCCCC)NCC1CCOC1` (centres unmarked) [Compound 36, 1-(decan-2-yl) 17-(heptadecan-9-yl) 9-(((tetrahydrofuran-3-yl)methyl)amino)heptadecanedioate] are 96%, 6133.5 ng/g tissue, 57 nm and 73 nm.
The corresponding values for `CCCCCCCCC(C)OC(=O)CCCCCCCC(CCCCCCCC(=O)OC(CCCCCCCC)CCCCCCCC)NCC1COC1` (centres unmarked) [Compound 37, 1-(decan-2-yl) 17-(heptadecan-9-yl) 9-((oxetan-3-ylmethyl)amino)heptadecanedioate] are 93%, 1225.5 ng/g tissue, 47 nm and 60 nm.
`CCCCCCCCC(CC)OC(=O)CCCCCCCC(CCCCCCCC(=O)OC(CCCCCCCC)CCCCCCCC)NC1CC2(COC2)C1` (centres unmarked) [Compound 38, 1-(heptadecan-9-yl) 17-(undecan-3-yl) 9-((2-oxaspiro[3.3]heptan-6-yl)amino)heptadecanedioate]: the “% EE” value in series [1] (Table 5) worked out at 97%. Also, the “Liver eGFP protein (ng/g tissue)” value with Female BALB/c mice (Table 5, 0.3 mg/kg) is listed as 9730.7 ng/g tissue. For the same molecule, in series [2] (Table 5), the “<d>N (nm)” value was 61 nm and the “<d>Z (nm)” value stood at 76 nm.
